Results on four compounds are retold here after US12560054B2, “Use of carboxylates for carbon sequestration, improved oil recovery, and hydrogen storage and reproduction” (Board of Regents, The University of Texas System, priority 2021, dated 2026).

For series [1] the following is noted: 347 K. The protocol: Contact Angle Experiments. Contact angle experiments were performed on calcite surfaces and Eagle Ford shale plates. […] After cutting the plates in the appropriate sizes, they were polished with a diamond grinder to result in a smooth surface. […] The pH values of the chemical solutions were measured before and after the experiment. […] The final pH level was adjusted to correspond to the glycine solution at the same concentration. […] Then, to start the experiment, the rock pieces were immersed in the solution and then oil droplets were placed at the bottom of the rock pieces. The solution chambers were put in the oven for equilibration. Then, images of the oil droplets were taken. A new oil droplet was placed after a certain number of days and the images were taken after equilibration. Contact angles reported in figures are the equilibrium contact angles. For example, if data is reported from day 7, that data is the final equilibrated contact angle of the droplet placed on day 7. Contact angles were measured from photos with the on-screen protractor software.

The conditions of series [2]: with RB at reservoir and room temperatures.
Series [3] in a line: pH measurements before and after the contact angle experiments with calcite. Format: physicochemical. Particulars: room temperature; for pH After: after contact angle experiment with calcite; for pH Before: before contact angle experiment. As to the method:
RB was made first by adding salts and adjusting the total mass of the solution to 1 kg with deionized water. […] For solutions with HCl, HCl was added to solutions of formate and acetate at room temperature while stirring slowly. […] After aqueous solutions were prepared and degassed, they were placed in an oven at the desired reservoir temperature (347 K for calcite and 337 for Eagle Ford shale).

For series [4] the following is noted: 337 K. The protocol:
Contact Angle Experiments. Contact angle experiments were performed on calcite surfaces and Eagle Ford shale plates. […] After cutting the plates in the appropriate sizes, they were polished with a diamond grinder to result in a smooth surface.
RB was made first by adding salts and adjusting the total mass of the solution to 1 kg with deionized water. […] The final pH level was adjusted to correspond to the glycine solution at the same concentration. […]
After being aged in heavy oil for at least 3 weeks, the calcite or shale pieces were retrieved, and the excess oil was removed from the surfaces carefully. Then, to start the experiment, the rock pieces were immersed in the solution and then oil droplets were placed at the bottom of the rock pieces. The solution chambers were put in the oven for equilibration. Then, images of the oil droplets were taken. A new oil droplet was placed after a certain number of days and the images were taken after equilibration. Contact angles reported in figures are the equilibrium contact angles. For example, if data is reported from day 7, that data is the final equilibrated contact angle of the droplet placed on day 7. Contact angles were measured from photos with the on-screen protractor software.
A similar procedure was followed for another set of experiments with Eagle Ford shale plates.

The conditions of series [5]: room temperature; cited from earlier work.
The conditions of series [6]: near-saturated 45% (% w/w) sodium formate in water, 20 °C; cited from earlier work.
A short description of series [7]: Viscosity and density of formate solutions in NaCl+CaCl2 brine. The class given is physicochemical. Conditions: solutions in the brine at 25, 50 and 75 °C over a wide range of shear rates. The protocol:
Viscosity Measurements. […] A double wall couette geometry was used for the measurement. The viscosity measurements were taken at 25, 50, and 75° C. The sodium formate solutions were prepared and allowed to equilibrate in an oven set at the target temperature.
For viscosity measurements at 50 and 75° C., the temperature of the holding cup was raised to the target temperature using the circulating bath before putting the solution into the rheometer's sample holding cup.

Structures are written as SMILES. Like-named read-outs stand apart in the source and are kept apart here.

For the compound `CC(=O)[O-].[Na+]` [acetate, Sodium Acetate], the “contact angle reduction on calcite” value in series [1] (without HCl, in RB) was “did not significantly reduce the contact angle”. Besides, the aqueous stability result in series [2] is recorded as “confirmed”. Besides, the “pH After” value amounted to 8.04 in series [3] (0.5 wt % in RB), 7.89 in series [3] (1 wt % in RB), 7.87 in series [3] (2.5 wt % in RB) and 7.85 in series [3] (5 wt % in RB). The “pH Before” value amounted to 8.15 in series [3] (0.5 wt % in RB), 8.31 in series [3] (1 wt % in RB), 8.44 in series [3] (2.5 wt % in RB) and 8.64 in series [3] (5 wt % in RB). For the same compound, the “final contact angle on Eagle Ford shale plates” value (shortened to “final contact angle”) in series [4] (5 wt % in RB with HCl) is reported as “approximately 60 °”; in series [4] (5 wt % in RB without HCl) it was “about 80 °”.

`O=CO` [formate]: the “contact angle on calcite” value in series [1] (with HCl (pH adjusted to glycine level), in RB) was 50-60 °; in series [1] (without HCl, 0.5-5 wt % in RB) it was “approximately 80 °”. Further, in series [2], the aqueous stability result is listed as “confirmed”. Also, the “pH After” value in series [3] (0.5 wt % in RB) is 8.26; in series [3] (1 wt % in RB) it was 8.22; in series [3] (2.5 wt % in RB), 8.05; in series [3] (5 wt % in RB) it was 7.96. Besides, the “pH Before” value in series [3] (0.5 wt % in RB) amounted to 8.07; in series [3] (1 wt % in RB), 7.96; in series [3] (2.5 wt % in RB) it was 8.12; in series [3] (5 wt % in RB), 8.11. For the same compound, the “final contact angle” value was “approximately 60 °” in series [4] (5 wt % in RB with HCl) and “about 80 °” in series [4] (5 wt % in RB without HCl).

Take `NCC(=O)O` [glycine, reference compound]: in series [1] (2.5 and 5 wt % in RB, reached over time), the “contact angle on calcite” value is reported as ~40 °. In addition, the “isoelectric point (pI)” value in series [5] was 5.97. Moreover, the “pH After” value in series [3] (0.5 wt % in RB) stood at 7.94; in series [3] (1 wt % in RB) it was 7.73; in series [3] (2.5 wt % in RB) it was 7.53; in series [3] (5 wt % in RB), 7.62. Further, the “pH Before” value in series [3] (0.5 wt % in RB) is reported as 6.68; in series [3] (1 wt % in RB), 6.42; in series [3] (2.5 wt % in RB), 6.24; in series [3] (5 wt % in RB) it was 6.10. Moreover, the “final contact angle” value in series [4] (5 wt % in RB without HCl) is given as 60 °.

For the compound `O=C[O-].[Na+]` [sodium formate], the reported viscosity in series [6] was 9.5 cp. Moreover, the rheological behavior entry in series [7] is “Newtonian behavior”.
